Measurements as given in ChEMBL document CHEMBL2062390, “3-Phenyl-1H-5-pyrazolylamine-based derivatives as potent and efficacious inhibitors of FMS-like tyrosine kinase-3 (FLT3)” (Bioorg Med Chem Lett, 2012).
Active and inactive are the calls of the source. The rule behind the calls is not given here.

Legend:
[1] = molecular target: Vascular endothelial growth factor receptor 2 (Homo sapiens, UniProt P35968)
[2] = molecular target: T1, Aurora kinase A (Homo sapiens, UniProt O14965)
T1 sequence (O14965 whole entry): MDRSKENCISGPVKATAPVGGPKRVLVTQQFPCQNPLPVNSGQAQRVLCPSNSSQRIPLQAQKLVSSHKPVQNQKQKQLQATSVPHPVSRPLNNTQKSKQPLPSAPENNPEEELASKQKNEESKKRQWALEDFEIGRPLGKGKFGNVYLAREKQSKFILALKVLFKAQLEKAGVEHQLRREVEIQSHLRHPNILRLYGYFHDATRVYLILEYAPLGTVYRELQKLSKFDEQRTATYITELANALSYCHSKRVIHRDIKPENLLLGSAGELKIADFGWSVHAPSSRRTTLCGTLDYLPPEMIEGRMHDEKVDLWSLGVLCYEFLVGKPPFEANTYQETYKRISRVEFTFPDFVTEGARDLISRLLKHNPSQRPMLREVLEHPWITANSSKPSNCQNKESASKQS

[3] = tested on: MOLM-13; experiment: cells; details: Homo sapiens
Description: Antiproliferative activity against human MOLM13 cells expressing FLT3-ITD mutant

[4] = molecular target: Vascular endothelial growth factor receptor 1 (Homo sapiens, UniProt P17948)
[5] = molecular target: T2, Receptor-type tyrosine-protein kinase FLT3 (Homo sapiens, UniProt P36888)
T2 sequence (P36888 whole entry): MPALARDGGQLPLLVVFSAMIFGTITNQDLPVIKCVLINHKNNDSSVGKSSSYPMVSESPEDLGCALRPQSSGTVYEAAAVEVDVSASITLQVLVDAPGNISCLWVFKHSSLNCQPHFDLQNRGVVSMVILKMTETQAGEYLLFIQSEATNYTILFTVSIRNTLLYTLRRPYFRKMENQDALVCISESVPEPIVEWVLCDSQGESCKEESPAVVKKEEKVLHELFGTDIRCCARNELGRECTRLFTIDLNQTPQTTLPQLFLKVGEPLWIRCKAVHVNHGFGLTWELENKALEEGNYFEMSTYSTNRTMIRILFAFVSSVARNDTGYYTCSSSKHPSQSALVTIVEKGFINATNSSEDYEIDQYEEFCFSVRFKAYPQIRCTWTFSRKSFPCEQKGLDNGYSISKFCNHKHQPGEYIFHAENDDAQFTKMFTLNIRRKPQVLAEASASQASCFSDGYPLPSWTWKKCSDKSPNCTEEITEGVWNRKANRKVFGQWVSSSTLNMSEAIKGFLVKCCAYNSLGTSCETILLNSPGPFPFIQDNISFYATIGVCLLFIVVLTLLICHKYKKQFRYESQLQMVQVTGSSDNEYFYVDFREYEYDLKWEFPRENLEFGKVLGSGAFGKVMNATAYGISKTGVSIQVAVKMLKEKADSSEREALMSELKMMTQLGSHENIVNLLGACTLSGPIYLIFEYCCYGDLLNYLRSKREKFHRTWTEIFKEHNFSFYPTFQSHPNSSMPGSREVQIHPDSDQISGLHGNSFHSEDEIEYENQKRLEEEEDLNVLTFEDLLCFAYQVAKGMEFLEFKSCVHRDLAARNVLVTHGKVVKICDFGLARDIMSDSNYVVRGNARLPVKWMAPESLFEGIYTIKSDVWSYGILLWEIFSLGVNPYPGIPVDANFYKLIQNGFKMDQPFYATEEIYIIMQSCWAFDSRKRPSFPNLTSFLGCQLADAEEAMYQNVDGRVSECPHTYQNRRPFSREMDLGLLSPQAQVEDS
Description: Inhibition of wild type FLT3

[6] = AUC (0 to 4 hrs) in rat at 2 mg/kg, iv; format: ADME, organism-based; parameters: time < 4 hr, dose 2 mg/kg, route intravenous; details: plasma
[7] = AUC in Sprague-Dawley rat at 2 mg/kg, iv; format: ADME, organism-based; parameters: dose 2 mg/kg, route intravenous; details: plasma
[8] = tested on: MV4-11; experiment: Antiproliferative activity against human MV4-11 cells expressing FLT3-ITD mutant; format: functional
[9] = Half life in Sprague-Dawley rat plasma at 2 mg/kg, iv; format: ADME, organism-based; parameters: dose 2 mg/kg, route intravenous
[10] = tested on: Mus musculus; experiment: Toxicity in athymic nude NU-Fox1 mouse xenografted with human MOLM-13 cells assessed as body weight loss at 25 mg/kg, iv administered QD on days 1 to 5 and 8 to 12 measured up to 30 days; format: organism-based; parameters: dose 25 mg/kg, route intravenous; details: in vivo, 720 h
[11] = Plasma clearance in Sprague-Dawley rat at 2 mg/kg, iv; format: ADME, organism-based; parameters: dose 2 mg/kg, route intravenous
[12] = tested on: MOLM-13; experiment: Antitumor activity against human MOLM13 cells expressing FLT3-ITD mutant xenografted in athymic nude NU-Fox1 mouse assessed as tumor regression at 25 mg/kg, iv administered as single dose; format: functional, organism-based; parameters: dose 25 mg/kg
[13] = Plasma concentration in Sprague-Dawley rat at 2 mg/kg, iv at 24 hrs; format: ADME, organism-based; parameters: dose 2 mg/kg, route intravenous
[14] = molecular target: T2, Receptor-type tyrosine-protein kinase FLT3; experiment: (§1) Inhibition of FLT3 autophosphorylation in human MV4-11 cells after 2 hrs by Western blot analysis; format: cell-based
[15] = molecular target: Receptor-type tyrosine-protein kinase FLT3 (Homo sapiens) (UniProt P36888); experiment: as §1; format: cell-based
[16] = Cmax in Sprague-Dawley rat at 2 mg/kg, iv at 5 mins; format: ADME, organism-based; parameters: dose 2 mg/kg, route intravenous; details: in vivo
[17] = tested on: MOLM-13; experiment: Antitumor activity against human MOLM13 cells expressing FLT3-ITD mutant xenografted in athymic nude NU-Fox1 mouse assessed as tumor regression at 25 mg/kg, iv administered QD on days 1 to 5 and 8 to 12 measured up to 30 days; format: functional, organism-based; parameters: dose 25 mg/kg
[18] = Volume of distribution in Sprague-Dawley rat at 2 mg/kg, iv; format: ADME, organism-based; parameters: dose 2 mg/kg, route intravenous; details: in vivo
[19] = Oral bioavailability in Sprague-Dawley rat; format: ADME, organism-based; details: in vivo

Chain of Vascular endothelial growth factor receptor 2 (P35968 whole entry): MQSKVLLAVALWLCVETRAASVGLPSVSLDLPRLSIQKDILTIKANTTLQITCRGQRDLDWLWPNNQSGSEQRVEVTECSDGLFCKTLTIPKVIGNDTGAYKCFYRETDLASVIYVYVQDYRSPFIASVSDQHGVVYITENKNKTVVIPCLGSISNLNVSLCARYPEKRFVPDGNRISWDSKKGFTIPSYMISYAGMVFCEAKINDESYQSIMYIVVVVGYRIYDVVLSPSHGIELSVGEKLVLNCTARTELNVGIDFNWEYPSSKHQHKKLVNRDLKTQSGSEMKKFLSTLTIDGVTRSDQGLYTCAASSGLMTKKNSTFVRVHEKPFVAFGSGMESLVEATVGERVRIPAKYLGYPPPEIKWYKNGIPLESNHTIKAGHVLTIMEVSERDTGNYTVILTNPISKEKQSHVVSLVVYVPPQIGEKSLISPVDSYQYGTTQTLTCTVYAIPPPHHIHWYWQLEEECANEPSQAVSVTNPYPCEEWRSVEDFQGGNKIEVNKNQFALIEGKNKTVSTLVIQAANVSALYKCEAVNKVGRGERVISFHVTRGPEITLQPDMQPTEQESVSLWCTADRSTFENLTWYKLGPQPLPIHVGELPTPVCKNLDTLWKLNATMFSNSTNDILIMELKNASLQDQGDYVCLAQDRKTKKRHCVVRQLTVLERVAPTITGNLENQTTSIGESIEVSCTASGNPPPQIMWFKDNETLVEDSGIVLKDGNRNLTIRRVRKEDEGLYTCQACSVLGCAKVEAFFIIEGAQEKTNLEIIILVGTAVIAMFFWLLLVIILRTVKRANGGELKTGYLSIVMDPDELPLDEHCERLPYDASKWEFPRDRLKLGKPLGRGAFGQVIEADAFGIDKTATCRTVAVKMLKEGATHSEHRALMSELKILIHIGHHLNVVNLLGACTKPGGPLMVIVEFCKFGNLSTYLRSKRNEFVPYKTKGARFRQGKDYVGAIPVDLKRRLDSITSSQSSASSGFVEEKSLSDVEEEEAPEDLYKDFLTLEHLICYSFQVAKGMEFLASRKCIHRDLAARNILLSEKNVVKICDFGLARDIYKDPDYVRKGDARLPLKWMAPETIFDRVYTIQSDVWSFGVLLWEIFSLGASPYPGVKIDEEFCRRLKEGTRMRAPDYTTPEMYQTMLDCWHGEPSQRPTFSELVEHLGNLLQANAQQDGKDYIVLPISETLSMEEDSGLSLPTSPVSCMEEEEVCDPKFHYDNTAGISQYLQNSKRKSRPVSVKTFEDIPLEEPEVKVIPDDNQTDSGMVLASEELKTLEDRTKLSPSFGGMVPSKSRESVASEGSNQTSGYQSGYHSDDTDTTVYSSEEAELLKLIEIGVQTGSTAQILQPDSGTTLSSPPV
Chain of Vascular endothelial growth factor receptor 1 (P17948 whole entry): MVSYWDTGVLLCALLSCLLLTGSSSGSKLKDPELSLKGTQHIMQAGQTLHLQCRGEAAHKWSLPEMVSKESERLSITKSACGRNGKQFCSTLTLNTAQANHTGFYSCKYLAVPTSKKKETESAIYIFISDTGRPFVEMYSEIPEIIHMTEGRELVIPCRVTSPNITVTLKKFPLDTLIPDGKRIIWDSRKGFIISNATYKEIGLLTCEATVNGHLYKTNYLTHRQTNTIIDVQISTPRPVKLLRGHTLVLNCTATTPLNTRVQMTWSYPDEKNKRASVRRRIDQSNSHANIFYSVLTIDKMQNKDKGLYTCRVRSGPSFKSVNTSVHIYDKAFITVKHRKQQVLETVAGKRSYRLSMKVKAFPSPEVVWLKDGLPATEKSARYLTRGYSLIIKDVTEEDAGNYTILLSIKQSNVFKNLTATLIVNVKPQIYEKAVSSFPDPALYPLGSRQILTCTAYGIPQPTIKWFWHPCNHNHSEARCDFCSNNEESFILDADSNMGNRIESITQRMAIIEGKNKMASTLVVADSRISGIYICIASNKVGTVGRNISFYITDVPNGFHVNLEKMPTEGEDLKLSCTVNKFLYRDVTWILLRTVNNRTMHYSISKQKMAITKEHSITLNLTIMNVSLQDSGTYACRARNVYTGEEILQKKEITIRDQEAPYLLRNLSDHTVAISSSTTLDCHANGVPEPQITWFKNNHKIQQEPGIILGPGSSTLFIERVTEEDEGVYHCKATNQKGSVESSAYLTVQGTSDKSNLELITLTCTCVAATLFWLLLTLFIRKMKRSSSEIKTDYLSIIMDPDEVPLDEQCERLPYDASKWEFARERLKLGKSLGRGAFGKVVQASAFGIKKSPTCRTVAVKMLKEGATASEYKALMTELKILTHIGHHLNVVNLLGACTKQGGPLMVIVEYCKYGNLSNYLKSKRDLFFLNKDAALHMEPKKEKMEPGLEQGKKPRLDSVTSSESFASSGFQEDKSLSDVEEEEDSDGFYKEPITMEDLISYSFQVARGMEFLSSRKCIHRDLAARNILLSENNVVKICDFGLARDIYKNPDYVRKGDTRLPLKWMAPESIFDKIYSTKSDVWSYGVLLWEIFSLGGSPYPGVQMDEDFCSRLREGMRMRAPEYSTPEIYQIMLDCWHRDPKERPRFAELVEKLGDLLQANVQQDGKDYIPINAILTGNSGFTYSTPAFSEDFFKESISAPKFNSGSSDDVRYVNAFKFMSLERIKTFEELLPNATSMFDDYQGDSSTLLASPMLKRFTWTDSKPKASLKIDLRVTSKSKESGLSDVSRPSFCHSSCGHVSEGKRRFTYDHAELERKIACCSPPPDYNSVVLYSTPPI

Structure (SMILES) | IC50 [1] [nM] | IC50 [2] [nM] | GI50 [3] [nM] | IC50 [4] [nM] | IC50 [5] [nM] | also measured
CN1CCN(c2ccc(C(=O)Nc3cc(-c4ccc(NC(=O)OCc5ccccc5)cc4)n[nH]3)cc2)CC1 | 48 | > 1000 | 16 | 200 | 7 | 
CN1CCN(c2ccc(C(=O)Nc3cc(-c4ccc(CNC(=O)OCc5ccccc5)cc4)n[nH]3)cc2)CC1 | 100 | 880 | 2 | 20 | 6 | 
O=C(NCc1ccc(-c2cc(NC(=O)c3ccc(OCCN4CCOCC4)cc3)[nH]n2)cc1)OCc1ccccc1 | 370 | 590 | 8 | 370 | 17 | 
Cc1nc(Nc2cc(-c3ccc(CNC(=O)OCc4cc(C)on4)cc3)n[nH]2)cc(N2CCN(C)CC2)n1 | > 1000 | > 1000 | 4 | > 1000 | 5 | 
Cc1nc(Nc2cc(-c3ccc(CNC(=O)OCc4cc(C)on4)cc3)n[nH]2)cc(N2CCN(CCO)CC2)n1 | > 1000 | > 1000 | 5 | > 1000 | 72 | AUC(0-t) at 4 h [6]: 443 ng·h/mL
Cc1nc(Nc2cc(-c3ccc(CNC(=O)OCc4ccccc4)cc3)n[nH]2)cc(N2CCN(C)CC2)n1 | 310 | 430 | 2 | 420 | 18 | 
CN1CCN(c2ccc(C(=O)Nc3cc(-c4ccc(CNC(=O)OCc5cccnc5)cc4)n[nH]3)cc2)CC1 | 220 | > 1000 | 2 | 250 | 14 | AUC(0-t) at 4 h [6]: 272 ng·h/mL
Cc1nc(Nc2cc(-c3ccc(CNC(=O)OCc4ccccc4)cc3)n[nH]2)cc(N2CCN(CCO)CC2)n1 | 240 | 170 | 2 | 290 | 10 | 
O=C(NCc1ccc(-c2cc(NC(=O)c3ccc(OCCCN4CCCC4)cc3)[nH]n2)cc1)OCc1ccccc1 | 240 | > 1000 | 9 | 180 | 19 | 
O=C(NCc1ccc(-c2cc(NC(=O)c3ccc(OCCN4CCOCC4)cc3)[nH]n2)cc1)OCc1cccnc1 | > 1000 | > 1000 | 7 | > 1000 | 20 | 
CN1CCN(c2ccc(C(=O)Nc3cc(-c4ccc(CNS(=O)(=O)c5ccccc5)cc4)n[nH]3)cc2)CC1 | > 1000 | 1000 | 47 | > 1000 | 140 | 
O=C(NCc1ccc(-c2cc(NC(=O)c3ccc(OCCN4CCCC4)cc3)[nH]n2)cc1)OCc1cccnc1 | > 1000 | > 1000 | 8 | > 1000 | 35 | AUC(0-t) at 4 h [6]: 266 ng·h/mL
Cc1cc(COC(=O)NCc2ccc(-c3cc(NC(=O)c4ccc(OCCN5CCCC5)cc4)[nH]n3)cc2)no1 | 480 | > 1000 | 2 | 590 | 43 | AUC(0-t) at 4 h [6]: 448 ng·h/mL
Cc1nc(Nc2cc(-c3ccc(CNC(=O)OCc4cccnc4)cc3)n[nH]2)cc(N2CCN(CCO)CC2)n1 | > 1000 | > 1000 | 3 | > 1000 | 21 | 
CN1CCN(c2ccc(C(=O)Nc3cc(-c4ccc(NS(=O)(=O)c5ccccc5)cc4)n[nH]3)cc2)CC1 | > 1000 | > 1000 | 500 | > 1000 |  | 
Cc1nc(Nc2cc(-c3ccc(CNC(=O)OCc4cccnc4)cc3)n[nH]2)cc(N2CCN(C)CC2)n1 | > 1000 | > 1000 | 2 | > 1000 | 4 | 
CN1CCN(Cc2ccc(C(=O)Nc3cc(-c4ccc(CNC(=O)OCc5ccccc5)cc4)n[nH]3)cc2)CC1 | 170 | > 1000 | 4 | 320 | 7 | 
CCOC(=O)NCc1ccc(-c2cc(NC(=O)c3ccc(N4CCN(C)CC4)cc3)[nH]n2)cc1 | 560 | > 1000 | 48 | > 1000 | 17 | 
Cc1cc(COC(=O)NCc2ccc(-c3cc(NC(=O)c4ccc(OCCN5CCOCC5)cc4)[nH]n3)cc2)no1 | > 1000 | > 1000 | 4 | > 1000 | 52 | AUC(0-t) at 4 h [6]: 1030 ng·h/mL
Cc1nc(Nc2cc(-c3ccc(CNC(=O)OCc4ccccc4)cc3)n[nH]2)cc(N2CCNCC2)n1 | 190 | 350 | 6 | 82 | 17 | 
CN1CCN(c2ccc(C(=O)Nc3cc(-c4ccc(CNC(=O)Oc5ccccc5)cc4)n[nH]3)cc2)CC1 | 92 | > 1000 | 20 | 54 | 16 | 
Cc1cc(COC(=O)NCc2ccc(-c3cc(NC(=O)c4ccc(N5CCN(C)CC5)cc4)[nH]n3)cc2)no1 | 370 | > 1000 | 1 | 350 | 27 | 
CN1CCN(c2ccc(C(=O)Nc3cc(-c4ccc(NC(=O)Oc5ccccc5)cc4)n[nH]3)cc2)CC1 | 180 | > 1000 | 5 | 320 | 12 | 
O=C(Nc1ccc(-c2cc(NC(=O)c3ccc(OCCN4CCCC4)cc3)[nH]n2)cc1)Oc1ccccc1 | 300 | > 1000 | 47 | > 1000 | 40 | 
O=C(NCc1ccc(-c2cc(NC(=O)c3ccc(OCCN4CCCC4)cc3)[nH]n2)cc1)OCc1ccccc1 | 120 | > 1000 | 2 | 70 | 10 | AUC [7]: 5.79 µM·h; GI50 [8]: 3 nM; half-life [9]: 6.2 h; Activity [10]: Non-toxic; clearance [11]: 16.2 mL/min/kg; Activity [12]: Active; concentration at 24 h [13]: 17 nM; IC50 [14]: 1 nM; inhibition [15]: Dose-dependent effect; AUC(0-t) at 4 h [6]: 1380 ng·h/mL; Cmax [16]: 5430 nM; Activity [17]: Active; Vd [18]: 6 L/kg; bioavailability [19]: 5%
